# Like-named read-outs stand apart in the source and are kept apart here.
# B1: S. aureus Fab I (Staphylococcus aureus subsp. aureus MRSA252) (protein)
# chain: MLNLENKTYVIMGIANKRSIAFGVAKVLDQLGAKLVFTYRKERSRKELEKLLEQLNQPEAHLYQIDVQSDEEVINGFEQIGKDVGNIDGVYHSIAFANMEDLRGRFSETSREGFLLAQDISSYSLTIVAHEAKKLMPEGGSIVATTYLGGEFAVQNYNVMGVAKASLEANVKYLALDLGPDNIRVNAISAGPIRTLSAKGVGGFNTILKEIEERAPLKRNVDQVEVGKTAAYLLSDLSSGVTGENIHVDSGFHAIK
# notes: made in house; host or cells: E. coli
# Assays:
# [1] = target: T1, S. aureus Fab I (Staphylococcus aureus, UniProt Q6GI75); experiment: Inhibition of non his tagged (native) Fab I by saturated fatty acyl CoA's, NADH consumption at 340 nm; type: biochemical; conditions: read-out: Mean IC50 (uM) (n = 2), 1 mM crotonoyl CoA and 1 mM NADH, 100 mM NaADA, pH 6.5
# T1 construct: made in house; host or cells: E. coli
# T1 sequence (Q6GI75 1-256): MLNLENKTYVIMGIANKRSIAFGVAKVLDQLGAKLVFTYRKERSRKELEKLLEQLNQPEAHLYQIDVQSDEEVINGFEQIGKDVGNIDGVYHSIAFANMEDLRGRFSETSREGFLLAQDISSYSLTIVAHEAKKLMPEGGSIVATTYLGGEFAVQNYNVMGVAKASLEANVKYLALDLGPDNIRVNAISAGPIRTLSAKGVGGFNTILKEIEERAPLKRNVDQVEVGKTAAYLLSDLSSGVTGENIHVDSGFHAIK
# Protocol: (§1) Crotonoyl CoA was used as the substrate for Fab I and all activity measurements were based on a decrease in absorbance at 340 nm due to the utilization of NADH (FIG. 1). All assays were performed with 100 mM NaADA, pH 6.5 buffer. Acyl-CoA inhibition data was performed in the presence of 1 mM crotonoyl CoA and 1 mM NADH.
# [2] = target: T2, E. coli Fab I (Escherichia coli, UniProt P0AEK4); conditions: cited from earlier work
# T2 sequence (P0AEK4 whole entry): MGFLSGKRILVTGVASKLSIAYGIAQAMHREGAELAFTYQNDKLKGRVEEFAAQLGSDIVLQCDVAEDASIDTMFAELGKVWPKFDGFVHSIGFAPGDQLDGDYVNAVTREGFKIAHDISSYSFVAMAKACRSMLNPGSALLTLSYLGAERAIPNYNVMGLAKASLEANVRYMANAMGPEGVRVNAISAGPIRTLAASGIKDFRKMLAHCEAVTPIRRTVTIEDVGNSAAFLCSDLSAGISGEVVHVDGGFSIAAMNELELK
# [3] = target: T1, S. aureus Fab I; experiment: Kinetic characterization of native S. aureus Fab I (substrates, mode of inhibition); type: biochemical
# Protocol: as §1
# (§2) However, studies performed at pH 6.0-7.0 with the native enzyme illustrated a sequential mechanistic pattern and kinetic parameters resulting from these studies indicated no overt change in either magnitude or kinetic mechanism. Thus the His10 tagged Fab I behaved distinctly from native Fab I enzyme.
# [4] = target: T2, E. coli Fab I; experiment: Kinetic constants of E. coli Fab I for its substrates; type: biochemical
# Excerpt: A diazaborine derivative may be used as a positive control, this should be readily available via a 2 step synthesis with publicly available starting materials using methods known in the art. Test compounds may be added to this assay to determine whether they agonize or antagonize enzymatic activity.
# [5] = substrate: C/C=C/C(=O)SCCNC(=O)CCNC(=O)[C@H](O)C(C)(C)COP(=O)(O)OP(=O)(O)OC[C@H]1O[C@@H](n2cnc3c(N)ncnc32)[C@H](O)[C@@H]1OP(=O)(O)O; experiment: Kinetic characterization of native S. aureus Fab I (substrates, mode of inhibition); type: biochemical, Staphylococcus aureus; conditions: other: S. aureus Fab I
# Protocol: as §1, §2
molecule,measurement,setting,value
CC(=O)SCCNC(=O)CCNC(=O)[C@H](O)C(C)(C)COP(=O)(O)OP(=O)(O)OC[C@H]1O[C@@H](n2cnc3c(N)ncnc32)[C@H](O)[C@@H]1OP(=O)(O)O [Acetyl],IC50,[1],> 1000 µM
"C/C=C/C(=O)SCCNC(=O)CCNC(=O)[C@H](O)C(C)(C)COP(=O)(O)OP(=O)(O)OC[C@H]1O[C@@H](n2cnc3c(N)ncnc32)[C@H](O)[C@@H]1OP(=O)(O)O [CCA, crotonoyl CoA]",KCCA,"[2]; E. coli Fab I, Bergler et al 1994",2.7 mM
same,Km,[2]; substrate of FAB I activity assay (Bergler et al 1994),2700 µM
same,KCCA,[3]; native S. aureus Fab I,2.5 mM
CCCCCCCCCCCCCC(=O)SCCNC(=O)CCNC(=O)[C@H](O)C(C)(C)COP(=O)(O)OP(=O)(O)OC[C@H]1O[C@@H](n2cnc3c(N)ncnc32)[C@H](O)[C@@H]1OP(=O)(O)O [Myristoyl],IC50,[1],23.1 µM
NC(=O)C1=CN([C@@H]2O[C@H](COP(=O)(O)OP(=O)(O)OC[C@H]3O[C@@H](n4cnc5c(N)ncnc54)[C@H](O)[C@@H]3O)[C@@H](O)[C@H]2O)C=CC1 [NADH],Kmapp for NADH relative to NADPH,[3]; S. aureus Fab I,approximately 30 fold
same,Km,"[3]; S. aureus Fab I, read-out: Km for NADH",~410 µM
same,KNADH,[3]; native S. aureus Fab I,0.7 mM
same,KiNADH,[3]; native S. aureus Fab I,0.2 mM
same,KNADH,[4],0.01 mM
same,Km,[4]; read-out: Km for NADH,13 µM
CCCC(=O)SCCNC(=O)CCNC(=O)[C@H](O)C(C)(C)COP(=O)(O)OP(=O)(O)OC[C@H]1O[C@@H](n2cnc3c(N)ncnc32)[C@H](O)[C@@H]1OP(=O)(O)O [n-Butyryl],IC50,[1],> 1000 µM
CCCCCCCCCC(=O)SCCNC(=O)CCNC(=O)C(O)C(C)(C)COP(=O)(O)OP(=O)(O)OC[C@H]1O[C@@H](n2cnc3c(N)ncnc32)[C@H](O)[C@@H]1OP(=O)(O)O (stereo partly drawn) [n-Decanoyl],IC50,[1],226 µM
CCCCCC(=O)SCCNC(=O)CCNC(=O)C(O)C(C)(C)COP(=O)(O)OP(=O)(O)OC[C@H]1O[C@@H](n2cnc3c(N)ncnc32)[C@H](O)[C@@H]1OP(=O)(O)O (stereo partly drawn) [n-Hexanoyl],IC50,[1],576 µM
CCCCCCCC(=O)SCCNC(=O)CCNC(=O)C(O)C(C)(C)COP(=O)(O)OP(=O)(O)OC[C@H]1O[C@@H](n2cnc3c(N)ncnc32)[C@H](O)[C@@H]1OP(=O)(O)O (stereo partly drawn) [n-Octanoyl],IC50,[1],248 µM
"Apo-ACP: apo acyl carrier protein, inhibitor of Fab I",Mode of inhibition versus NADH,[3]; S. aureus Fab I,uncompetitive
same,Mode of inhibition versus crotonoyl CoA,[3]; S. aureus Fab I,competitive
B1,Km,[5],2500 µM

# From patent US20050112713A1, “Methods of using Fab I and compounds modulating Fab I activity” (Affinium Pharmaceuticals, Inc., priority 1996, published 2005)
